# Measurements published in patent US20200179428A1, “CYCLIC PHOSPHATE SUBSTITUTED NUCLEOSIDE DERIVATIVES AND METHODS OF USE THEREOF FOR THE TREATMENT OF VIRAL DISEASES” (priority 2016, published 2020).
# Read-outs that look alike come from different tables or passages of the source.
# Key:
# [1] = system: replicon cells (1b-Con1); assay: Replicon activity assay (replicon RNA level by real-time RT-PCR, Taqman); type: cell-based; conditions: HCV replicon genotype 1b, read-out: EC50 (1b) Range
# How it was run: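 HCV 1b-Con1 replicon cells treated 3 days with 10-point twofold serial dilutions in triplicate (0.5% DMSO, 10% FBS); replicon RNA quantified by Taqman real-time RT-PCR normalised to GAPDH, EC50 derived. Cytotoxicity by MTS read-out at day 3 on identically treated cells.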
# [2] = Cytotoxicity MTS assay (CellTiter 96 Aqueous One Solution) in replicon cells; type: cell-based; conditions: EDU, read-out: CC50 (EDU) Range; for CC50 at 3 days: HCV replicon cells (1b-Con1)
Structure (SMILES),EC50 ([1]; Hepatitis C virus) [µM],CC50 at 3 days [2] [µM],CC50 [2] [µM],EC50 [1] [µM]
CC(CCO[P@@]1(=O)OC[C@H]2O[C@@H](n3ccc(=O)[nH]c3=O)[C@](C)(N)[C@@H]2O1)CC(=O)OC(C)C (stereo partly shown) [Compound 21A],> 10,> 50,–,–
CC(C)OC(=O)C(CCO[P@@]1(=O)OC[C@H]2O[C@@H](n3ccc(=O)[nH]c3=O)[C@](C)(N)[C@@H]2O1)C(C)C (stereo partly shown) [Compound 24A],> 10,> 50,–,–
C#C[C@]1(C)[C@@H]2O[P@@](=O)(OCC(CC(=O)OC(C)C)N(C)C(=O)OC(C)(C)C)OC[C@H]2O[C@H]1n1ccc(=O)[nH]c1=O (stereo partly shown) [Compound 74A1],> 10,> 50,–,–
"C#C[C@@]1(O)[C@@H]2OP(=O)(OCCC(C)C(=O)OC3CCCC3)OC[C@H]2O[C@H]1n1ccc(=O)[nH]c1=O (single isomer, unassigned) [Compound 8A]",0.25 to 1,> 50,–,–
COC(=O)N[C@@H](CCO[P@]1(=O)OC[C@H]2O[C@@H](n3ccc(=O)[nH]c3=O)[C@](C)(N)[C@@H]2O1)C(=O)OC(C)C [Compound 42B],> 10,> 50,–,–
CC(C)OC(=O)C1CC1CO[P@]1(=O)OC[C@H]2O[C@@H](n3ccc(=O)[nH]c3=O)[C@](C)(N)[C@@H]2O1 (stereo partly shown) [Compound 47B],> 10,> 50,–,–
CCC(CCO[P@@]1(=O)OC[C@H]2O[C@@H](n3ccc(=O)[nH]c3=O)[C@](C)(N)[C@@H]2O1)C(=O)OC(C)C (stereo partly shown) [Compound 23A],> 10,> 50,–,–
C#C[C@]1(C)[C@@H]2OP(=O)(OCCC(C)C(=O)OC(C)C)OC[C@H]2O[C@H]1n1ccc(=O)[nH]c1=O (stereo partly shown) [Compound 1A],1 to 10,–,> 50,–
CC(=O)O[C@H](C(=O)OC(C)C)[C@@H](COP1(=O)OC[C@H]2O[C@@H](n3ccc(=O)[nH]c3=O)[C@](C)(N)[C@@H]2O1)OC(C)=O (stereo partly shown) [Compound 53B],> 10,> 50,–,–
CCOC(=O)C1(CCO[P@]2(=O)OC[C@H]3O[C@@H](n4ccc(=O)[nH]c4=O)[C@](C)(N)[C@@H]3O2)CC1 [Compound 28B],> 10,> 50,–,–
CO[C@H](CO[P@@]1(=O)OC[C@H]2O[C@@H](n3ccc(=O)[nH]c3=O)[C@](C)(N)[C@@H]2O1)CC(=O)OC(C)C [Compound 61A],> 10,> 50,–,–
CC(CCO[P@]1(=O)OC[C@H]2O[C@@H](n3ccc(=O)[nH]c3=O)[C@](C)(N)[C@@H]2O1)CC(=O)OC(C)C (stereo partly shown) [Compound 21B],> 10,> 50,–,–
CO[C@H](CO[P@]1(=O)OC[C@H]2O[C@@H](n3ccc(=O)[nH]c3=O)[C@](C)(N)[C@@H]2O1)CC(=O)OC(C)C [Compound 61B],> 10,> 50,–,–
CC(C)OC(=O)C(C)(C)CO[P@@]1(=O)OC[C@H]2O[C@@H](n3ccc(=O)[nH]c3=O)[C@](C)(C#N)[C@@H]2O1 [Compound 16A],> 10,> 50,–,–
C#C[C@]1(C)[C@@H]2O[P@@](=O)(OCC[C@@H](OC(C)=O)C(=O)OC(C)C)OC[C@H]2O[C@H]1n1ccc(=O)[nH]c1=O [Compound 50A],> 10,> 50,–,–
C#C[C@]1(C)[C@@H]2O[P@](=O)(OCC[C@@H](OC)C(=O)OC(C)C)OC[C@H]2O[C@H]1n1ccc(=O)[nH]c1=O [Compound 57B],1 to 10,> 50,–,–
C#C[C@]1(C)[C@@H]2O[P@](=O)(OCCC(C(=O)OC(C)C)C(C)C)OC[C@H]2O[C@H]1n1ccc(=O)[nH]c1=O (stereo partly shown) [Compound 32B],> 10,> 50,–,–
CC(C)OC(=O)COCCO[P@@]1(=O)OC[C@H]2O[C@@H](n3ccc(=O)[nH]c3=O)[C@](C)(N)[C@@H]2O1 [Compound 69A],> 10,> 50,–,–
C#C[C@]1(C)[C@@H]2O[P@](=O)(OCC(C)(C)CC(=O)OC(C)C)OC[C@H]2O[C@H]1n1ccc(=O)[nH]c1=O [Compound 18B],> 10,> 50,–,–
CC(C)OC(=O)C(CCO[P@@]1(=O)OC[C@H]2O[C@@H](n3cnc4c(N)ncnc43)[C@](C)(Cl)[C@@H]2O1)C(=O)OC(C)C [Compound 70A],0.25 to 1,> 50,–,–
CC(C)OC(=O)C[C@H](F)CO[P@@]1(=O)OC[C@H]2O[C@@H](n3ccc(=O)[nH]c3=O)[C@](C)(N)[C@@H]2O1 [Compound 65A],> 10,> 50,–,–
CCOC(=O)C1(CCO[P@@]2(=O)OC[C@H]3O[C@@H](n4ccc(=O)[nH]c4=O)[C@](C)(N)[C@@H]3O2)CC1 [Compound 28A],> 10,> 50,–,–
C#C[C@]1(C)[C@@H]2O[P@](=O)(OCCC(CO)C(=O)OC(C)C)OC[C@H]2O[C@H]1n1ccc(=O)[nH]c1=O (stereo partly shown) [Compound 44B],> 10,> 50,–,–
CC(C)OC(=O)[C@@H](C)CCO[P@]1(=O)OC[C@H]2O[C@@H](n3cnc4c(N)ncnc43)[C@](C)(N)[C@@H]2O1 [Compound 73B],1 to 10,> 50,–,–

Structure (SMILES),EC50 ([1]; Hepatitis C virus) [µM],CC50 at 3 days [2] [µM],CC50 [2] [µM],EC50 [1] [µM]
CCCCCOC(=O)C(C)CCO[P@@]1(=O)OC[C@H]2O[C@@H](n3ccc(=O)[nH]c3=O)[C@](C)(N)[C@@H]2O1 (stereo partly shown) [Compound 79A],1 to 10,> 50,–,–
"CC(C)OC(=O)C(C)CCOP1(=O)OC[C@H]2O[C@@H](n3cnc4c(N)ncnc43)[C@](C)(Cl)[C@@H]2O1 (single isomer, unassigned) [Compound 35A1]",≤ 0.25,> 50,–,–
C#C[C@@]1(O)[C@@H]2OP(=O)(OCCC(C)C(=O)OC(C)C)OC[C@H]2O[C@H]1n1ccc(=O)[nH]c1=O (stereo partly shown) [Compound 7A],0.25 to 1,–,> 50,–
C#C[C@]1(C)[C@@H]2O[P@@](=O)(OC[C@@H](CC(=O)OC(C)C)OC)OC[C@H]2O[C@H]1n1ccc(=O)[nH]c1=O [Compound 62A],> 10,> 50,–,–
CC(C)OC(=O)[C@@H](C)CCO[P@@]1(=O)OC[C@H]2O[C@@H](n3cnc4c(N)ncnc43)[C@](C)(N)[C@@H]2O1 [Compound 73A],> 10,> 50,–,–
"C#C[C@]1(C)[C@@H]2OP(=O)(OCC(C)CC(=O)OC3CCCC3)OC[C@H]2O[C@H]1n1ccc(=O)[nH]c1=O (single isomer, unassigned) [Compound 3A]",–,> 50,–,> 10
C#C[C@]1(C)[C@@H]2O[P@](=O)(OC[C@@H](CC(=O)OC(C)C)OC)OC[C@H]2O[C@H]1n1ccc(=O)[nH]c1=O [Compound 62B],> 10,> 50,–,–
CC(C)OC(=O)CC(C)(C)CO[P@@]1(=O)OC[C@H]2O[C@@H](n3ccc(=O)[nH]c3=O)[C@](C)(N)[C@@H]2O1 [Compound 17A],> 10,> 50,–,–
CC(C)OC(=O)C(C)(C)CCO[P@@]1(=O)OC[C@H]2O[C@@H](n3ccc(=O)[nH]c3=O)[C@](C)(N)[C@@H]2O1 [Compound 19A],> 10,> 50,–,–
C#C[C@]1(C)[C@@H]2O[P@@](=O)(OCC(C)(C)CC(=O)OC(C)C)OC[C@H]2O[C@H]1n1ccc(=O)[nH]c1=O [Compound 18A],> 10,> 50,–,–
C#C[C@@]1(OC(=O)CCC)[C@@H]2O[P@@](=O)(OCC[C@H](C)C(=O)OC(C)C)OC[C@H]2O[C@H]1n1ccc(=O)[nH]c1=O [Compound 85A2],≤ 0.25,> 50,–,–
C[C@@]1(N)[C@@H]2O[P@](=O)(OCCC3CCOC3=O)OC[C@H]2O[C@H]1n1ccc(=O)[nH]c1=O (stereo partly shown) [Compound 46B],> 10,> 50,–,–
C#C[C@@]1(O)[C@@H]2O[P@](=O)(OCCC(C(=O)OC(C)C)C(=O)OC(C)C)OC[C@H]2O[C@H]1n1ccc(=O)[nH]c1=O [Compound 59B],≤ 0.25,> 50,–,–
"C#C[C@]1(C)[C@@H]2OP(=O)(OCCC(C(=O)OC(C)C)C(=O)OC(C)C)OC[C@H]2O[C@H]1n1ccc(=O)[nH]c1=O (single isomer, unassigned) [Compound 36A]",–,> 50,–,0.25 to 1
CO[C@H](CCO[P@@]1(=O)OC[C@H]2O[C@@H](n3ccc(=O)[nH]c3=O)[C@](C)(N)[C@@H]2O1)C(=O)OC(C)C [Compound 45A],1 to 10,> 50,–,–
"C#C[C@@]1(O)[C@@H]2OP(=O)(OCC[C@@H](C)C(=O)OC(C)C)OC[C@H]2O[C@H]1n1ccc(=O)[nH]c1=O (single isomer, unassigned) [Compound 7A1]",0.25 to 1,> 50,–,–
C#C[C@@]1(OC(=O)CCCCCC)[C@@H]2O[P@@](=O)(OCC[C@@H](C)C(=O)OC(C)C)OC[C@H]2O[C@H]1n1ccc(=O)[nH]c1=O [Compound 84A1],≤ 0.25,> 50,–,–
C#C[C@]1(C)[C@@H]2O[P@@](=O)(OCCC(C(=O)OC(C)C)C(C)C)OC[C@H]2O[C@H]1n1ccc(=O)[nH]c1=O (stereo partly shown) [Compound 32A],> 10,> 50,–,–
CC(C)OC(=O)CC(F)(F)CO[P@@]1(=O)OC[C@H]2O[C@@H](n3ccc(=O)[nH]c3=O)[C@](C)(N)[C@@H]2O1 [Compound 49A],> 10,> 50,–,–
CC(C)OC(=O)C(CCOP1(=O)OC[C@H]2O[C@@H](n3ccc(=O)[nH]c3=O)[C@](C)(Cl)[C@@H]2O1)C(=O)OC(C)C (stereo partly shown) [Compound 38A],≤ 0.25,> 50,–,–
CC(C)OC(=O)C(C)CCCO[P@]1(=O)OC[C@H]2O[C@@H](n3ccc(=O)[nH]c3=O)[C@](C)(N)[C@@H]2O1 (stereo partly shown) [Compound 34B],> 10,> 50,–,–
C#C[C@@]1(OC(=O)CCC)[C@@H]2O[P@@](=O)(OCC[C@@H](C)C(=O)OC(C)C)OC[C@H]2O[C@H]1n1ccc(=O)[nH]c1=O [Compound 83A1],≤ 0.25,> 50,–,–
C#C[C@]1(C)[C@@H]2OP(=O)(OCC(C)CC(=O)OC(C)C)OC[C@H]2O[C@H]1n1ccc(=O)[nH]c1=O (stereo partly shown) [Compound 6B],1 to 10,> 50,–,–
